These results are taken from ChEMBL document CHEMBL1158889, “Antineoplastic agents 500. Narcistatin” (J Nat Prod, 2003).

Converted amounts (≈) assume the structure as drawn.

Data set [1] concerns P388. Kind of data set: Cytotoxicity against mouse P388 cells. As to conditions: for EC50: read-out: ED50 (the source's name). It is filed as functional.
In data set [2] the test system is KM-20L2. Kind of data set: Cytotoxicity against human KM20L2 cells. It is filed as functional.
Data set [3] deals with MCF7. Kind of data set: Cytotoxicity against human MCF7 cells. The data set is classed as functional.
Data set [4] can be described thus: physchem. The conditions noted are these: aqueous (not further specified).
Description: Aqueous solubility of the compound
The subject of data set [5] is NCI-H460. Kind of data set: Cytotoxicity against human NCI-H460 cells. It is filed as functional.
Data set [6] deals with BXPC-3. Kind of data set: Cytotoxicity against human BxPC3 cells. It is filed as functional.
Data set [7] relates to SF-268. Kind of data set: Cytotoxicity against human SF268 cells. It is filed as functional.
Data set [8] concerns DU-145. Kind of data set: Cytotoxicity against human DU145 cells. It is filed as functional.
For data set [9] the following is noted: buffer.
Description: Aqueous solubility of the compound

Regarding `O=C1N[C@@H]2C(=C[C@H](O)[C@H]3OP(=O)([O-])O[C@H]32)c2cc3c(c(O)c21)OCO3.[Li+]` [LITHIUM NARCISTATIN], the EC50 in data set [1] turned out to be 0.121 µg/mL. Further, the GI50 in [2] worked out at 0.26 µg/mL; in [3] it was 0.31 µg/mL; in [5], 0.3 µg/mL; in data set [6] it was 0.25 µg/mL; in data set [7], 0.17 µg/mL; in data set [8], 0.13 µg/mL. In [4], this molecule showed a solubility of more than 50000 µg/mL.
As to `C1COCCN1.O=C1N[C@@H]2C(=C[C@H](O)[C@H]3OP(=O)(O)O[C@H]32)c2cc3c(c(O)c21)OCO3` [MORPHOLINIUM NARCISTATIN], in data set [1], the EC50 was found to be 0.232 µg/mL. Further, the GI50 in data set [2] is 0.54 µg/mL; in data set [3] it was 0.48 µg/mL; in data set [5], more than 1 µg/mL; in [6], 0.25 µg/mL; in data set [7], 0.24 µg/mL; in data set [8], 0.14 µg/mL. Besides, the solubility in [4] is more than 13000 µg/mL.
“MANGANESE NARCISTATIN [listing 1 of 2 here]” registered an ED50 in data set [1] of 4.27 ×10⁻² µg/ml. In addition, the GI50 was determined as 0.13 µg/mL in data set [2]; 0.07 µg/mL in data set [3]; 0.15 µg/mL in [5]; 0.049 µg/mL in data set [6]; 0.04 µg/mL in [7]; 0.034 µg/mL in [8].
With `O=C1N[C@@H]2C(=C[C@H](O)[C@H]3OP(=O)(O)O[C@H]32)c2cc3c(c(O)c21)OCO3` [NARCISTATIN], the EC50 in data set [1] came to 0.275 µg/mL (≈ 0.745 µM). The concentration for 50% growth inhibition (GI50) in [2] was determined as 0.53 µg/mL (≈ 1.44 µM); in data set [3] it was 0.35 µg/mL (≈ 0.948 µM); in data set [5], 0.47 µg/mL (≈ 1.27 µM); in [6], 0.33 µg/mL (≈ 0.894 µM); in [7], 0.22 µg/mL (≈ 0.596 µM); in data set [8] it was 0.16 µg/mL (≈ 0.433 µM). The same molecule registered a solubility in data set [4] of 4000 µg/mL (≈ 10800 µM).
Regarding `O=C1N[C@@H]2C(=C[C@H](O)[C@H]3OP(=O)([O-])O[C@H]32)c2cc3c(c([O-])c21)OCO3.[Mg+2]` [MAGNESIUM NARCISTATIN], in [1], the EC50 is 0.17 µg/mL. The GI50 in data set [2] was determined as 0.31 µg/mL; in [3], 0.25 µg/mL; in data set [5], 0.29 µg/mL; in data set [6], 0.19 µg/mL; in [7], 0.14 µg/mL; in data set [8] it was 0.1 µg/mL. In data set [4], this molecule gave a solubility of less than 1500 µg/mL.
As to `O=C1N[C@@H]2C(=C[C@H](O)[C@H]3OP(=O)(O)O[C@H]32)c2cc3c(c(O)c21)OCO3.c1ccncc1` [PYRIDINIUM NARCISTATIN], the EC50 in data set [1] was determined as 0.191 µg/mL. Besides, the GI50 in [2] stood at 0.34 µg/mL; in [3], 0.27 µg/mL; in [5], 0.27 µg/mL; in data set [6], 0.22 µg/mL; in data set [7], 0.15 µg/mL; in [8], 0.17 µg/mL.
As for `C=C[C@@H]1CN2CC[C@@H]1C[C@@H]2[C@H](O)c1ccnc2ccc(OC)cc12.O=C1N[C@@H]2C(=C[C@H](O)[C@H]3OP(=O)(O)O[C@H]32)c2cc3c(c(O)c21)OCO3` [QUININIUM NARCISTATIN], the EC50 in [1] was determined as 0.0342 µg/mL. Further, the GI50 in [2] is 0.12 µg/mL; in data set [3] it was 0.12 µg/mL; in data set [5], 0.17 µg/mL; in data set [6] it was 0.051 µg/mL; in data set [7], 0.045 µg/mL; in data set [8], 0.013 µg/mL.
On to `O=C1N[C@@H]2C(=C[C@H](O)[C@H]3OP(=O)(O)O[C@H]32)c2cc3c(c(O)c21)OCO3.c1c[nH]cn1` [IMIDAZOLIUM NARCISTATIN], for which the EC50 in data set [1] was 0.24 µg/mL. Besides, the GI50 was more than 1 µg/mL in [2]; 0.9 µg/mL in data set [3]; more than 1 µg/mL in data set [5]; 0.45 µg/mL in [6]; 0.38 µg/mL in data set [7]; 0.44 µg/mL in data set [8]. The concentration in solution in data set [4] (solubility) was 5800 µg/mL.
For `O=C1N[C@@H]2C(=C[C@H](O)[C@H]3OP(=O)([O-])O[C@H]32)c2cc3c(c([O-])c21)OCO3.[Ca+2]` [CALCIUM NARCISTATIN], in [1], the EC50 amounted to 0.0223 µg/mL. Also, the GI50 in [2] stood at 0.059 µg/mL; in [3] it was 0.059 µg/mL; in data set [5] it was 0.12 µg/mL; in data set [6], 0.045 µg/mL; in data set [7], 0.031 µg/mL; in data set [8] it was 0.0093 µg/mL. Further, the solubility in data set [4] was less than 1000 µg/mL.
Regarding `O=C1N[C@@H]2C(=C[C@H](O)[C@H]3OP(=O)([O-])O[C@H]32)c2cc3c(c(O)c21)OCO3.O=C1N[C@@H]2C(=C[C@H](O)[C@H]3OP(=O)([O-])O[C@H]32)c2cc3c(c(O)c21)OCO3.[Zn+2]` [ZINC NARCISTATIN], the EC50 in data set [1] was determined as 0.0287 µg/mL. Also, the GI50 in data set [2] amounted to 0.16 µg/mL; in data set [3] it was 0.14 µg/mL; in data set [5] it was 0.21 µg/mL; in [6], 0.069 µg/mL; in data set [7], 0.053 µg/mL; in [8], 0.016 µg/mL. This molecule also gave a solubility in [4] of 1700 µg/mL.
For the molecule `O=C1N[C@@H]2C(=C[C@H](O)[C@H]3OP(=O)([O-])O[C@H]32)c2cc3c(c(O)c21)OCO3.[Na+]` [SODIUM NARCISTATIN], in [1], the EC50 stood at 0.255 µg/mL. Further, the GI50 in [2] was 0.45 µg/mL; in data set [3] it was 0.56 µg/mL; in [5] it was more than 1 µg/mL; in data set [6], 0.32 µg/mL; in data set [7], 0.23 µg/mL; in data set [8], 0.12 µg/mL. The molecule further displayed a solubility in data set [4] of 60000 µg/mL.
Take `O=C1N[C@@H]2C(=C[C@H](O)[C@H]3OP(=O)([O-])O[C@H]32)c2cc3c(c(O)c21)OCO3.[K+]` [POTASSIUM NARCISTATIN]: the EC50 in [1] is 0.242 µg/mL. In addition, the 50% growth inhibitory concentration (GI50) is 0.56 µg/mL in data set [2]; 0.4 µg/mL in data set [3]; 0.67 µg/mL in data set [5]; 0.36 µg/mL in [6]; 0.19 µg/mL in data set [7]; 0.26 µg/mL in [8]. The same molecule had a solubility in data set [4] of 11000 µg/mL.
`C1CNCCN1.O=C1N[C@@H]2C(=C[C@H](O)[C@H]3OP(=O)(O)O[C@H]32)c2cc3c(c(O)c21)OCO3` [PIPERAZINIUM NARCISTATIN]: in [1], the EC50 is 0.0378 µg/mL. Moreover, the GI50 worked out at 0.22 µg/mL in data set [2]; 0.17 µg/mL in [3]; 0.24 µg/mL in data set [5]; 0.1 µg/mL in [6]; 0.099 µg/mL in [7]; 0.032 µg/mL in data set [8]. The molecule further gave a solubility in data set [4] of 1900 µg/mL.
On to `C=C[C@@H]1CN2CC[C@@H]1C[C@H]2[C@@H](O)c1ccnc2ccc(OC)cc12.O=C1N[C@@H]2C(=C[C@H](O)[C@H]3OP(=O)(O)O[C@H]32)c2cc3c(c(O)c21)OCO3` [QUINIDINIUM NARCISTATIN], for which the EC50 in data set [1] came to 0.271 µg/mL. Also, the GI50 in data set [2] came out at 0.58 µg/mL; in data set [3], 0.5 µg/mL; in data set [5] it was 0.77 µg/mL; in [6], 0.31 µg/mL; in [7], 0.25 µg/mL; in data set [8] it was 0.22 µg/mL.
With `O=C1N[C@@H]2C(=C[C@H](O)[C@H]3OP(=O)([O-])O[C@H]32)c2cc3c(c(O)c21)OCO3.[Cs+]` [CESIUM NARCISTATIN], in data set [1], the EC50 worked out at 0.183 µg/mL. Moreover, the GI50 in data set [2] was 0.66 µg/mL; in [3], 0.62 µg/mL; in data set [5] it was more than 1 µg/mL; in data set [6] it was 0.41 µg/mL; in data set [7], 0.33 µg/mL; in data set [8] it was 0.13 µg/mL. In data set [4], the solubility was less than 13000 µg/mL.
As for “MANGANESE NARCISTATIN [listing 2 of 2 here]”, the solubility in [9] is less than 3000 µg/mL.

As usually defined, the GI50 is the concentration giving 50% growth inhibition. A lower GI50 goes with greater sensitivity of the cells. The term solubility denotes how much of the substance goes into solution per volume.
